In patent US11000033B2, “Ketone or oxime compound, and herbicide” (NISSAN CHEMICAL CORPORATION, priority 2014, dated 2021):

What was measured:
Assay type in all cases: in vivo
Setaria viridis = assay: Test Example 4: herbicidal effect by soil treatment (symbol G); settings: application herbicide amount 320 g/ha
Procedure, shortened: (§1)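 Seeds were sown in sterilized diluvial soil, covered with about 1.5 cm of soil, and the soil surface was sprayed with a water-diluted emulsion of the compound at a predetermined rate. Plants grew in a greenhouse at 25° C. to 30° C.; effects were scored visually 3 weeks after application.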

Abutilon theophrasti = assay: Test Example 4: herbicidal effect by soil treatment (symbol M); settings: application herbicide amount 320 g/ha
Procedure, shortened: as §1

Amaranthus retroflexus = assay: Test Example 4: herbicidal effect by soil treatment (symbol N); settings: application herbicide amount 320 g/ha
Procedure, shortened: as §1

Leptochloa chinensis = assay: Test Example 3: herbicidal effect by foliage application, Wagner pot (symbol D); settings: application herbicide amount 320 g/ha
Procedure, shortened: (§2)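 Foliar spray of a water-diluted emulsion at a predetermined herbicide amount, applied to 14-day-old plants. Seedlings were raised in flooded alluvial soil (0.1–0.5 cm water) at 25–30 °C in a greenhouse. Injury was rated after 3 weeks against fixed criteria.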

rice = assay: Test Example 4: effect on crop by soil treatment (symbol b); settings: application herbicide amount 320 g/ha
Procedure, shortened: (§3)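 Crop seed is sown in spots together with several weed species in a box of sterilized diluvial soil. It is covered by about 1.5 cm of soil and kept in a greenhouse held between 25° C. and 30° C.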

[1] = tested on: Echinochloa oryzacola Vasing.; assay: Test Example 2: herbicidal activity, application during weed generation in submerged conditions (symbol A); settings: Table 23; application herbicide amount 320 g/ha; grade 0-5 by criteria of Test Example 1
Procedure, shortened: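 Scoring of herbicidal effect took place 3 weeks after treatment, using the criteria of the earlier test. Treatment was water-surface application of diluted emulsifiable compound at a set dose. Plants were at one- to two-leaf stage in submerged alluvial soil (4 cm depth), greenhouse 25-30° C.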

Chenopodium album [2] = assay: Test Example 4: herbicidal effect by soil treatment (symbol O); settings: application herbicide amount 320 g/ha
Procedure, shortened: as §1

Alopecurus myosuroides = assay: Test Example 4: herbicidal effect by soil treatment (symbol J); settings: application herbicide amount 320 g/ha
Procedure, shortened: as §1

Stellaria media = assay: Test Example 5: herbicidal effect by foliage application, plastic box (symbol P); settings: 320 g/ha, 3 weeks after application
Procedure, shortened: (§4)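 Greenhouse foliar test: seedlings at 14 days, grown 25° C. to 30° C. in sterilized diluvial soil; compound applied as an aqueous dilution of an emulsion; response read 3 weeks after spraying.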

wheat = assay: Test Example 4: effect on crop by soil treatment (symbol e); settings: application herbicide amount 320 g/ha
Procedure, shortened: as §3

Lolium multiflorum Lam. = assay: Test Example 4: herbicidal effect by soil treatment (symbol K); settings: application herbicide amount 320 g/ha
Procedure, shortened: as §1

Chenopodium album [3] = assay: Test Example 5: herbicidal effect by foliage application, plastic box (symbol O); settings: 320 g/ha, 3 weeks after application
Procedure, shortened: as §4

Avena fatua [4] = assay: Test Example 5: herbicidal effect by foliage application, plastic box (symbol I); settings: 320 g/ha, 3 weeks after application
Procedure, shortened: as §4

Galium spurium = assay: Test Example 4: herbicidal effect by soil treatment (symbol Q); settings: application herbicide amount 320 g/ha
Procedure, shortened: as §1

[5] = tested on: directly sowed rice plant; assay: Test Example 3: effect on crop by foliage application, Wagner pot (symbol b); settings: application herbicide amount 320 g/ha
Procedure, shortened: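 Alluvial soil in a 1/10000-are Wagner pot was flooded to a water depth of 0.1–0.5 cm. Echinochloa crus-galli var. crus-galli, Leptochloa chinensis, Cyperus difformis and rice were sown into it and grown in a greenhouse at 25–30 °C.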

Avena fatua [6] = assay: Test Example 4: herbicidal effect by soil treatment (symbol I); settings: application herbicide amount 320 g/ha
Procedure, shortened: as §1

corn = assay: Test Example 5: effect on crop by foliage application, plastic box (symbol c); settings: 320 g/ha, 3 weeks after application
Procedure, shortened: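 Greenhouse test at 25° C. to 30° C. Seeds of crops and weeds were spot-sown in boxes of sterilized diluvial soil under roughly 1.5 cm soil cover, then grown for foliage treatment.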

Cyperus difformis = assay: Test Example 3: herbicidal effect by foliage application, Wagner pot (symbol E); settings: application herbicide amount 320 g/ha
Procedure, shortened: as §2

| Structure (SMILES) | Herbicidal effect grade, G: Setaria viridis (Setaria viridis) | Herbicidal effect grade, M: Abutilon theophrasti (Abutilon theophrasti) | Herbicidal effect grade, N: Amaranthus retroflexus (Amaranthus retroflexus) | herbicidal effect on D (Leptochloa chinensis), grade 0-5 (Leptochloa chinensis) | Effect on crop grade, b: directly sowed rice plant (rice) | Herbicidal effect grade, A: Echinochloa oryzacola Vasing. [1] | Herbicidal effect grade, O: Chenopodium album (Chenopodium album [2]) | Herbicidal effect grade, J: Alopecurus myosuroides (Alopecurus myosuroides) | P: Stellaria media, herbicidal effect (criteria of Test Example 1) (Stellaria media) | Effect on crop grade, e: wheat (wheat) | Herbicidal effect grade, K: Lolium multiflorum Lam. (Lolium multiflorum Lam.) | O: Chenopodium album, herbicidal effect (criteria of Test Example 1) (Chenopodium album [3]) | I: Avena fatua, herbicidal effect (criteria of Test Example 1) (Avena fatua [4]) | Herbicidal effect grade, Q: Galium spurium (Galium spurium) | effect on crop b (directly sowed rice plant), grade 0-5 [5] | Herbicidal effect grade, I: Avena fatua (Avena fatua [6]) | c: corn, effect on crop (criteria of Test Example 1) (corn) | herbicidal effect on E, grade 0-5 (Cyperus difformis) |
| --- | --- | --- | --- | --- | --- | --- | --- | --- | --- | --- | --- | --- | --- | --- | --- | --- | --- | --- |
| CON=C(C)CC1CC(O)=C(c2c(F)cc(C)cc2OC)C1=O (centres unmarked) [6-108] | 4 (Herbicidal ratio of 70% or higher and lower than 90%) | 5 (Herbicidal ratio of 90% or more (almost completely withered)) | 4 (Herbicidal ratio of 70% or higher and lower than 90%) | 5 (Herbicidal ratio of 90% or more (almost completely withered)) | 5 (Herbicidal ratio of 90% or more (almost completely withered)) | 4 (Herbicidal ratio of 70% or higher and lower than 90%) | 5 (Herbicidal ratio of 90% or more (almost completely withered)) | 3 (Herbicidal ratio of 40% or higher and lower than 70%) | 3 (Herbicidal ratio of 40% or higher and lower than 70%) | 3 (Herbicidal ratio of 40% or higher and lower than 70%) | 5 (Herbicidal ratio of 90% or more (almost completely withered)) | 2 (Herbicidal ratio of 20% or higher and lower than 40%) | 5 (Herbicidal ratio of 90% or more (almost completely withered)) | 3 (Herbicidal ratio of 40% or higher and lower than 70%) | 5 (Herbicidal ratio of 90% or more (almost completely withered)) | 3 (Herbicidal ratio of 40% or higher and lower than 70%) | 5 (Herbicidal ratio of 90% or more (almost completely withered)) |  |
| CON=C(C)CC1CC(OC(=O)N2CCOCC2)=C(c2c(C)cc(-c3ccc(Cl)cc3F)cc2C)C1=O (centres unmarked) [6-089] | 4 (Herbicidal ratio of 70% or higher and lower than 90%) | 0 (Herbicidal ratio of 5% or lower (almost no effect)) | 0 (Herbicidal ratio of 5% or lower (almost no effect)) | 5 (Herbicidal ratio of 90% or more (almost completely withered)) | 0 (Herbicidal ratio of 5% or lower (almost no effect)) | 5 (Herbicidal ratio of 90% or more (almost completely withered)) | 0 (Herbicidal ratio of 5% or lower (almost no effect)) | 2 (Herbicidal ratio of 20% or higher and lower than 40%) | 4 (Herbicidal ratio of 70% or higher and lower than 90%) | 0 (Herbicidal ratio of 5% or lower (almost no effect)) | 3 (Herbicidal ratio of 40% or higher and lower than 70%) | 4 (Herbicidal ratio of 70% or higher and lower than 90%) | 5 (Herbicidal ratio of 90% or more (almost completely withered)) | 0 (Herbicidal ratio of 5% or lower (almost no effect)) | 5 (Herbicidal ratio of 90% or more (almost completely withered)) | 0 (Herbicidal ratio of 5% or lower (almost no effect)) |  | 4 (Herbicidal ratio of 70% or higher and lower than 90%) |
| CON=C(C)CC1CC(O)=C(c2c(C)cc(-c3cc(F)c(F)c(F)c3)cc2C)C1=O (centres unmarked) [6-104] | 5 (Herbicidal ratio of 90% or more (almost completely withered)) | 5 (Herbicidal ratio of 90% or more (almost completely withered)) | 5 (Herbicidal ratio of 90% or more (almost completely withered)) | 5 (Herbicidal ratio of 90% or more (almost completely withered)) | 5 (Herbicidal ratio of 90% or more (almost completely withered)) | 5 (Herbicidal ratio of 90% or more (almost completely withered)) | 4 (Herbicidal ratio of 70% or higher and lower than 90%) | 5 (Herbicidal ratio of 90% or more (almost completely withered)) | 4 (Herbicidal ratio of 70% or higher and lower than 90%) | 5 (Herbicidal ratio of 90% or more (almost completely withered)) | 1 (Herbicidal ratio of 5% or higher and lower than 20%) | 4 (Herbicidal ratio of 70% or higher and lower than 90%) | 5 (Herbicidal ratio of 90% or more (almost completely withered)) | 4 (Herbicidal ratio of 70% or higher and lower than 90%) | 5 (Herbicidal ratio of 90% or more (almost completely withered)) | 4 (Herbicidal ratio of 70% or higher and lower than 90%) | 5 (Herbicidal ratio of 90% or more (almost completely withered)) |  |
| CON=C(C)CC1CC(OC(=O)N2CCCC2)=C(c2c(C)cc(C)cc2OC)C1=O (centres unmarked) [6-110] | 0 (Herbicidal ratio of 5% or lower (almost no effect)) | 0 (Herbicidal ratio of 5% or lower (almost no effect)) | 0 (Herbicidal ratio of 5% or lower (almost no effect)) | 5 (Herbicidal ratio of 90% or more (almost completely withered)) | 0 (Herbicidal ratio of 5% or lower (almost no effect)) | 5 (Herbicidal ratio of 90% or more (almost completely withered)) | 0 (Herbicidal ratio of 5% or lower (almost no effect)) | 3 (Herbicidal ratio of 40% or higher and lower than 70%) | 1 (Herbicidal ratio of 5% or higher and lower than 20%) | 0 (Herbicidal ratio of 5% or lower (almost no effect)) | 3 (Herbicidal ratio of 40% or higher and lower than 70%) | 0 (Herbicidal ratio of 5% or lower (almost no effect)) | 5 (Herbicidal ratio of 90% or more (almost completely withered)) | 0 (Herbicidal ratio of 5% or lower (almost no effect)) | 5 (Herbicidal ratio of 90% or more (almost completely withered)) | 0 (Herbicidal ratio of 5% or lower (almost no effect)) | 5 (Herbicidal ratio of 90% or more (almost completely withered)) |  |
